Values of other authors in patent US7479387B2, “Compositions and methods for the synthesis and subsequent modification of uridine-5′-diphosphosulfoquinovose (UDP-SQ)” (Michigan State University, priority 2000, dated 2009).

Assays:
tumor promotion = conditions: background statement, Shirahashi et al. 1993
[1] = system: mammalian DNA polymerases; conditions: background statement, Ohta et al. 1998
[2] = target: T1, Human Immunodeficiency Virus Reverse Transcriptase 1 (HIV-RT1) (Human immunodeficiency virus type 1 group M subtype B, UniProt P03366); conditions: background statement, Ohta et al. 1998
T1 construct: Human Immunodeficiency Virus Reverse Transcriptase 1 (HIV-RT1)

## 6-sulfo-α-D-quinovosyl diacyglycerol [SQDG]
Tumor promotion
  anti-tumor promoting properties: anti-tumor promoting properties
[1]
  inhibition of several mammalian DNA polymerases: potent inhibitor
[2]
  inhibition of HIV-RT1: potent inhibitor
